Test results reported in PubChem BioAssay (NCI).
Values joined by “and” are separate entries in the source; they are usually repeats but may differ in a detail not shown here. Identical values can stand only once.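 Values below derive from 48-hour exposures of cells grown in 96-well plates, with endpoints linearly interpolated between the two concentrations bracketing the appropriate inhibition level. At the GI50, growth is halved. Definition used: TGI = concentration required for complete inhibition of growth.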

Tests used:
Test in all cases: growth of human tumour cells (NCI), 48 h
COLO 205 colon = tested on: COLO 205 colon
IGROV1 ovarian = tested on: IGROV1 ovarian
K-562 leukemia = tested on: K-562 leukemia
OVCAR-8 ovarian = tested on: OVCAR-8 ovarian
RPMI-8226 leukemia = tested on: RPMI-8226 leukemia
SK-MEL-28 melanoma = tested on: SK-MEL-28 melanoma
SK-OV-3 ovarian = tested on: SK-OV-3 ovarian
SR leukemia = tested on: SR leukemia
UACC-62 melanoma = tested on: UACC-62 melanoma
UO-31 renal = tested on: UO-31 renal

Row | SMILES | TGI (COLO 205 colon) | TGI (IGROV1 ovarian) | TGI (K-562 leukemia) [µM] | TGI (OVCAR-8 ovarian) | TGI (RPMI-8226 leukemia) [µM] | TGI (SK-MEL-28 melanoma) | TGI (SK-OV-3 ovarian) | TGI (SR leukemia) | TGI (UACC-62 melanoma) [µM] | TGI (UO-31 renal) | GI50 (COLO 205 colon) [µM] | GI50 (IGROV1 ovarian) [µM] | GI50 (K-562 leukemia) | GI50 (OVCAR-8 ovarian) [µM] | GI50 (RPMI-8226 leukemia) [µM] | GI50 (SK-MEL-28 melanoma) [µM] | GI50 (SK-OV-3 ovarian) [µM] | GI50 (SR leukemia) [µM] | GI50 (UACC-62 melanoma) [µM] | GI50 (UO-31 renal) [µM]
1 | OCC1CC2CC1C1(C2)OCCO1 (centres undefined) | > 100 µM | > 100 µM | > 100 | > 100 µM | > 100 | > 100 µM | > 100 µM | > 100 µM | > 100 | > 100 µM | – | – | – | – | – | – | – | – | – | –
2 | COc1ccccc1OCC(O)CO (centres undefined) | > 100 µM | > 100 µM | > 100 | > 100 µM | > 100 | > 100 µM | > 100 µM | > 100 µM | > 100 | > 100 µM | > 100 | > 100 | > 100 µM | > 100 | > 100 | > 100 | > 100 | > 100 | > 100 | > 100
3 | CC(=O)OCC1OC(O[C@@H]2C[C@H]3C(C)(C)[C@H](OC(C)=O)CC[C@]3(C)[C@H]3CC[C@@H]4[C@]5(CC[C@@]4(C)[C@@]32C)O[C@@H]([C@H](O)C(C)(C)O)C[C@@H]5C)C(O)C(O)C1O (some centres undefined) | 14.3 µM | 21.6 µM | 25.1 | 23.7 µM | 19 | 24 µM | 20.7 µM | 12.9 µM | 19.7 | 20.8 µM | 4.11 | 9.57 | 4.51 µM | 9.35 | 3.37 | 10.2 | 7.95 | 3.08 | 6.36 | 7.85
4 | NC(=NC1C2CC3CC(C2)CC1C3)Nc1ccc(I)cc1 (centres undefined) | 2.64 µM | 13.5 µM | 15.7 | 23.4 µM | 5.72 | 7.58 µM | 23.3 µM | 6.84 µM | 9.33 | 12.8 µM | 1 | 3.2 | 3.29 µM | 6.61 | 2.49 | 2.53 | 8.68 | 2.49 | 2.88 | 2.67
5 | COc1cc(SC)ccc1C(=O)N1CCCC(C)C1 (centres undefined) | > 100 µM | > 100 µM | > 100 | > 100 µM | > 100 | > 100 µM | > 100 µM | > 100 µM | > 100 | > 100 µM | > 100 | > 100 | 58.7 µM | > 100 | 69.2 | > 100 | > 100 | > 100 | > 100 | > 100
6 | C=C1C(=O)O[C@H]2[C@H](OC(C)=O)[C@@H](C)CCC/C(C)=C/CC[C@]3(CO3)[C@H](O)C[C@@H]12 | 13.7 µM | 12.8 µM | 5.06 | 10.8 µM | 5.49 | 4.8 µM | 21.7 µM | 3.94 µM | 25.3 | 19.9 µM | 3.89 | 3.37 | 1.85 µM | 3.06 | 1.84 | 2.21 | 9.12 | 1.32 | 12.7 | 6.29
7 | Cc1cc(I)cc(CN(C)CCCCN2CCCC2)c1O | 26.1 µM | 59.1 µM | 24.2 | > 100 µM | 36 | 27.8 µM | 67.8 µM | 29.4 µM | 15.7 | > 100 µM | 13.4 | 24.8 | 11.3 µM | 37.2 | 15.1 | 13.4 | 21.6 | 11.5 | 4.19 | 28.2
8 | C[C@@H]1CC[C@H]2C(CN3CCN(CC4=C(C(F)(F)F)O[C@@H]5O[C@@]6(C)CC[C@H]7[C@H](C)CC[C@@H]4[C@@]57OO6)CC3)=C(C(F)(F)F)O[C@@H]3O[C@@]4(C)CC[C@@H]1[C@]32OO4 | – | > 100 µM | > 100 | > 100 µM | – | > 100 µM | > 100 µM | > 100 µM | > 100 | 85.8 µM | 0.996 | > 27.4 | 1.09 µM | 2.29 | 0.43 | 9.96 | > 100 | 1.89 | 6.35 | 2.67
9 | O=c1c2c(=NCCCN3CCCC3)cc3c(=O)n(CCCN4CCCC4)c(=O)c4c(NCCCN5CCCC5)cc(c(O)n1CCCN1CCCC1)c2c4-3 | 4.21 µM | 12 µM | > 100 | 12.3 µM | 45.8 | 5.31 µM | 6.93 µM | 81.9 µM | 5.12 | 22 µM | 1.89 | 3.51 | 3.36 µM | 1.74 | 4.39 | 2.53 | 2.4 | 6.88 | 2.34 | 4.5
10 | CC(C)(C)c1ccc(C(O)(c2ccc(C(C)(C)C)cc2)c2ccc(C(C)(C)C)cc2)cc1 | > 100 µM | > 100 µM | > 100 | > 100 µM | > 100 | > 100 µM | > 100 µM | > 100 µM | > 100 | > 100 µM | – | – | – | – | – | – | – | – | – | –
11 | COc1ccc(-c2nc(N)nc(-c3cc(C)ccc3O)c2Cl)cc1 | > 100 µM | > 100 µM | > 100 | > 100 µM | > 100 | > 100 µM | 94.2 µM | > 100 µM | > 100 | > 100 µM | – | – | – | – | – | – | – | – | – | –
12 | Cc1ccc(S(=O)(=O)ON=C2CC(c3ccccc3)N(C)C(c3ccccc3)C2)cc1 (centres undefined) | 29 µM and 28.3 µM | 62.1 µM and 56.7 µM | > 100 | 35.6 µM and 36.5 µM | 48.2 | 54.3 µM and 49 µM | 44.9 µM and 47.7 µM | 62.5 µM and 57.3 µM | 31.1 | 35.3 µM and 49.1 µM | – | – | 60.1 µM and 29.3 µM | – | – | – | – | – | – | –
13 | CCOc1ccc(N2C(N)=NC(N)=NC2(C)C)cc1 | > 100 µM | > 100 µM | > 100 | > 100 µM | > 100 | > 100 µM | > 100 µM | > 100 µM | > 100 | > 100 µM | 69.9 | 46.5 | 36 µM | 62.3 | > 100 | 53.7 | > 100 | 74.6 | 43.8 | > 100
